# Results: patent US6583164B1, “Antimycotic drug composition” (Takeda Chemical Industries, Ltd., priority 1998, dated 2003)
# System: A. fumigatus TIMM1728
# Test: Defensive effect against experimental Aspergillosis infection in neutropenic mice (prolonging life)
# Format: in vivo
# Details: CDF1 female mice made neutropenic with cyclophosphamide; intravenous administration, 5 times; survival recorded for 10 days after infection
# Experimental: Method: 6-week-old CDF1 female mice (n=5) were allowed to have neutropenia by intraperitoneally administering 200 mg/kg of cyclophosphamide, and after 4 days, 0.2 ml liquid of frozen and stored A. fumigatus TIMM1728 conidia, diluted 1000-fold, was inoculated into the tail veins of the mice (6×10^4 CFU/mouse). Compound 12 was dissolved in 5% saccharide solution (aqueous glucose solution) and intravenously administered into the mice 5 times, that is, once in 2 hours after the infection and daily twice for 2 days after the infection. The number of living mice was recorded for 10 days after the infection, to evaluate the effect of prolonging their life.
substance,measurement,value
"4-acetoxymethyl-1-[(2R,3R)-2-(2,4-difluorophenyl)-2-hydroxy-3-[2-oxo-3-[4-(1H-tetrazol-1-yl)phenyl]-1-imidazolidinyl]butyl]-1H-1,2,4-triazolium chloride [Compound 12]",Defensive effect (ED50),1.7 mg/kg
